{
  "source": "patent US9175030B2",
  "about": "“Derivatives of avicin D and methods of making and using thereof” (priority 2012, dated 2015)",
  "key": {"JEKO-1": {"system": "JEKO-1", "assay": "MTT growth inhibition, JEKO-1", "format": "cell-based", "conditions": "Homo sapiens, JEKO-1 cells, 72 hrs", "protocol": "(§1) The growth inhibitory effects of avicin D and oxetane derivative were measured using the MTT [3-(4,5-dimethylthiazol-2-yl)-2,5-diphenyl tetrazolium bromide] reduction assay as described in Haridas et al. (2001). Cells were cultured with varying concentrations of avicin D or oxetane in 96-well plates for 72 hrs at 37° C. At the end of 72 hrs, cells were stained with MTT for 2 hrs and then incubated with lysis buffer (20% SDS in 50% N,N-dimethylformamide) for another 6 hrs. Optical density at 570 nm was used as a measure of cell viability.\n(§2) The cell lines 769P, A498, CAKI-1, and CAKI-2 are derived from primary human renal-cell cancers (RCC). A549 is a human lung adenocarcinoma epithelial cell line. B16F10 is a mouse melanoma cell line. BT474, BT 474 M1, BT549, MCF7, […], and ZR751 are breast cancer cell lines. CCRF-CEM, Jurkat, and MOLT4 are leukemia cell lines. HELA is cell line derived from cervical caner. HepG2 is a human hepatocellular liver carcinoma cell line. JeKo-1 is a mantle cell lymphoma (MCL) cell line. LnCAP is a cell line was established from a metastatic lesion of human prostatic adenocarcinoma. MM.1 and RPMI-8226 are human multiple myeloma cell lines. OVCAR3 and SKOV3 are ovarian cancer cell lines. Panc-1 is a pancreatic cancer cell line. PC3 is a prostate cancer cell line. Raji is a Burkitt's lymphoma cell line. RL is a non-Hodgkin's lymphoma cell line. […]"}, "OVCAR3": {"system": "OVCAR3", "assay": "MTT growth inhibition, OVCAR3", "format": "cell-based", "conditions": "Homo sapiens, OVCAR-3, OVCAR3 cells, 72 hrs", "protocol": "as §1, §2"}, "Jurkat": {"system": "Jurkat", "assay": "MTT growth inhibition, Jurkat", "format": "cell-based, human", "conditions": "Homo sapiens, Jurkat cells, 72 hrs (Table 5)", "protocol": "as §1, §2"}, "HEK293": {"system": "HEK293", "assay": "MTT growth inhibition, HEK293", "format": "cell-based, human", "conditions": "Homo sapiens, HEK293 cells, 72 hrs", "protocol": "as §1, §2"}, "GM0131": {"system": "GM0131", "assay": "MTT growth inhibition, GM0131", "format": "cell-based", "conditions": "GM0131 wild type human fibroblast cells, 72 hrs", "protocol": "as §1, §2"}, "MM1": {"system": "MM1", "assay": "MTT growth inhibition, MM1", "format": "cell-based, human", "conditions": "Homo sapiens, MM1 cells, 72 hrs", "protocol": "as §1, §2"}, "U266": {"system": "U266", "assay": "MTT growth inhibition, U266", "format": "cell-based", "conditions": "Homo sapiens, U-266, U266 cells, 72 hrs", "protocol": "as §1, §2"}, "Hela": {"system": "Hela", "assay": "MTT growth inhibition, Hela", "format": "cell-based", "conditions": "Homo sapiens, Hela cells, 72 hrs", "protocol": "as §1, §2"}, "3T3 L1": {"system": "3T3 L1", "assay": "MTT growth inhibition, 3T3 L1", "format": "cell-based", "conditions": "Mus musculus, 3T3 L1 fibroblast cells, 72 hrs", "protocol": "as §1, §2"}, "Nrf2": {"system": "Nrf2", "assay": "Nrf2 activation, ARE-driven luciferase in Hep G2 cells", "format": "cell-based, human", "conditions": "Hep G2 cells transfected with hARE-luc, luciferase activity", "protocol": "Activation of Nrf2 was assessed by measuring the antioxidant response element (ARE)-mediated gene expression as described previously by Haridas et al., 2004, which is incorporated herein by reference. Briefly, ARE is a cis-acting regulatory sequence identified in the promoter region of several genes encoding phase 2 detoxification enzymes, that binds to Nrf2. Hep G2 (human hepatocarcinoma) cells were transfected with a human ARE-driven luciferase (luc) containing plasmid, hARE-luc. Following exposure to avicin D/compound 8, the luciferase activity induced in these cells was measured using a dual-luciferase assay kit (Promega) according to the manufacturer's protocol."}, "LnCAP": {"system": "LnCAP", "assay": "MTT growth inhibition, LnCAP", "format": "cell-based, human", "conditions": "Homo sapiens, LnCAP cells, 72 hrs", "protocol": "as §1, §2"}, "[1]": {"system": "Jurkat (human T-cell leukemia) cells", "assay": "Reduction in cell viability, Jurkat cells (Table 6)", "format": "cell-based", "conditions": "Homo sapiens, 50% reduction in cell viability", "description": "The IC50 values indicate the concentrations of avicin D/compound 8 required to induce a 50% reduction in call viability. These studies were done in Jurkat (human T-cell leukemia) cells and have been described previously in Haridas et al., 2001, which is incorporated herein by reference."}, "A549": {"system": "A549", "assay": "MTT growth inhibition, A549", "format": "cell-based, human", "conditions": "Homo sapiens, A549 cells, 72 hrs", "protocol": "as §1, §2"}, "SKOV3": {"system": "SKOV3", "assay": "MTT growth inhibition, SKOV3", "format": "cell-based", "conditions": "Homo sapiens, SK-OV-3, SKOV3 cells, 72 hrs", "protocol": "as §1, §2"}, "BT474 M1": {"system": "BT474 M1", "assay": "MTT growth inhibition, BT474 M1", "format": "cell-based", "conditions": "Homo sapiens, BT474M1, BT474 M1 cells, 72 hrs", "protocol": "as §1, §2"}, "ZR751": {"system": "ZR751", "assay": "MTT growth inhibition, ZR751", "format": "cell-based", "conditions": "Homo sapiens, ZR-75-1, ZR751 cells, 72 hrs", "protocol": "as §1, §2"}, "769P": {"system": "769P", "assay": "MTT growth inhibition, 769P", "format": "cell-based, human", "conditions": "Homo sapiens, 769P cells, 72 hrs", "protocol": "as §1, §2"}, "Panc-1": {"system": "Panc-1", "assay": "MTT growth inhibition, Panc-1", "format": "cell-based", "conditions": "Homo sapiens, Panc-1 cells, 72 hrs", "protocol": "as §1, §2"}, "BT474": {"system": "BT474", "assay": "MTT growth inhibition, BT474", "format": "cell-based", "conditions": "Homo sapiens, BT-474, BT474 cells, 72 hrs", "protocol": "as §1, §2"}, "BT549": {"system": "BT549", "assay": "MTT growth inhibition, BT549", "format": "cell-based", "conditions": "Homo sapiens, BT-549, BT549 cells, 72 hrs", "protocol": "as §1, §2"}, "HS27": {"system": "HS27", "assay": "MTT growth inhibition, HS27", "format": "cell-based", "conditions": "HS27 human foreskin fibroblast cells, 72 hrs", "protocol": "as §1, §2"}, "MINO": {"system": "MINO", "assay": "MTT growth inhibition, MINO", "format": "cell-based", "conditions": "Homo sapiens, MINO cells, 72 hrs", "protocol": "as §1, §2"}, "MCF7": {"system": "MCF7", "assay": "MTT growth inhibition, MCF7", "format": "cell-based", "conditions": "Homo sapiens, MCF7 cells, 72 hrs", "protocol": "as §1, §2"}, "CAKI-2": {"system": "CAKI-2", "assay": "MTT growth inhibition, CAKI-2", "format": "cell-based, human", "conditions": "Homo sapiens, CAKI-2 cells, 72 hrs", "protocol": "as §1, §2"}, "CCRF-CEM": {"system": "CCRF-CEM", "assay": "MTT growth inhibition, CCRF-CEM", "format": "cell-based", "conditions": "Homo sapiens, CCRF-CEM cells, 72 hrs", "protocol": "as §1, §2"}, "B16F10": {"system": "B16F10", "assay": "MTT growth inhibition, B16F10", "format": "cell-based, mouse", "conditions": "Mus musculus, B16-F10, B16F10 cells, 72 hrs", "protocol": "as §1, §2"}, "Raji": {"system": "Raji", "assay": "MTT growth inhibition, Raji", "format": "cell-based", "conditions": "Homo sapiens, Raji cells, 72 hrs", "protocol": "as §1, §2"}, "RL": {"system": "RL", "assay": "MTT growth inhibition, RL", "format": "cell-based", "conditions": "Homo sapiens, RL cells, 72 hrs", "protocol": "as §1, §2"}, "CAKI-1": {"system": "CAKI-1", "assay": "MTT growth inhibition, CAKI-1", "format": "cell-based, human", "conditions": "Homo sapiens, CAKI-1 cells, 72 hrs", "protocol": "as §1, §2"}, "U2OS": {"system": "U2OS", "assay": "MTT growth inhibition, U2OS", "format": "cell-based, human", "conditions": "Homo sapiens, U2OS cells, 72 hrs", "protocol": "as §1, §2"}, "RPMI 8226": {"system": "RPMI 8226", "assay": "MTT growth inhibition, RPMI 8226", "format": "cell-based, human", "conditions": "Homo sapiens, RPMI 8226 cells, 72 hrs", "protocol": "as §1, §2"}, "MOLT4": {"system": "MOLT4", "assay": "MTT growth inhibition, MOLT4", "format": "cell-based", "conditions": "Homo sapiens, MOLT-4, MOLT4 cells, 72 hrs", "protocol": "as §1, §2"}, "PC3": {"system": "PC3", "assay": "MTT growth inhibition, PC3", "format": "cell-based", "conditions": "Homo sapiens, PC-3, PC3 cells, 72 hrs", "protocol": "as §1, §2"}, "A498": {"system": "A498", "assay": "MTT growth inhibition, A498", "format": "cell-based, human", "conditions": "Homo sapiens, A498 cells, 72 hrs", "protocol": "as §1, §2"}, "WSU-DLCL2": {"system": "WSU-DLCL2", "assay": "MTT growth inhibition, WSU-DLCL2", "format": "cell-based, human", "conditions": "Homo sapiens, WSUDLCL2, WSU-DLCL2 cells, 72 hrs", "protocol": "as §1, §2"}, "HepG2": {"system": "HepG2", "assay": "MTT growth inhibition, HepG2", "format": "cell-based, human", "conditions": "Homo sapiens, HepG2 cells, 72 hrs", "protocol": "as §1, §2"}},
  "note": "pIC50: −log10 of the molar value.",
  "data": [
    {"smiles": "C=CC(C)(O)CCC1OCC1C(=O)O[C@@H]1C(C)O[C@@H](O[C@](C)(C=C)CC/C=C(\\CO)C(=O)O[C@H]2C[C@@]3(C(=O)O[C@@H]4OC(CO)[C@@H](O)C(O)C4O[C@@H]4OC(C)[C@H](O[C@@H]5O[C@@H](CO)[C@H](O)[C@@H]5O)C(O[C@@H]5OC(CO)[C@@H](O)C(O)C5O)C4O)C(CC2(C)C)C2=CCC4[C@@]5(C)CC[C@H](O[C@@H]6OC(CO[C@@H]7OC(C)[C@H](O)C(O)C7O[C@@H]7OC[C@@H](O)C(O)C7O)[C@@H](O)C(O)C6NC(C)=O)C(C)(C)C5CC[C@@]4(C)[C@]2(C)C[C@H]3O)C(O)C1O", "note": "(stereo partly drawn) [Compound 8]", "values": [
      {"measurement": "pIC50", "setting": "JEKO-1", "value": 6.80},
      {"measurement": "pIC50", "setting": "OVCAR3", "value": 6.68},
      {"measurement": "pIC50", "setting": "Jurkat", "value": 7.05},
      {"measurement": "pIC50", "setting": "HEK293", "value": 5.17},
      {"measurement": "pIC50", "setting": "GM0131", "value": 4.92},
      {"measurement": "pIC50", "setting": "MM1", "value": 7.52},
      {"measurement": "pIC50", "setting": "U266", "value": 7.10},
      {"measurement": "pIC50", "setting": "Hela", "value": 5.73},
      {"measurement": "pIC50", "setting": "3T3 L1", "value": 6.10},
      {"measurement": "Fold Nrf2 activation", "setting": "Nrf2", "value": 0.98},
      {"measurement": "pIC50", "setting": "LnCAP", "value": 6.72},
      {"measurement": "pIC50", "setting": "[1]", "value": 7.40},
      {"measurement": "pIC50", "setting": "A549", "value": 5.92},
      {"measurement": "pIC50", "setting": "SKOV3", "value": 6.38},
      {"measurement": "pIC50", "setting": "BT474 M1", "value": 6.15},
      {"measurement": "pIC50", "setting": "ZR751", "value": 6.47},
      {"measurement": "pIC50", "setting": "769P", "value": 6.82},
      {"measurement": "pIC50", "setting": "Panc-1", "value": 6.51},
      {"measurement": "pIC50", "setting": "BT474", "value": 6.05},
      {"measurement": "pIC50", "setting": "BT549", "value": 5.85},
      {"measurement": "pIC50", "setting": "HS27", "value": 5.60},
      {"measurement": "pIC50", "setting": "MINO", "value": 7.22},
      {"measurement": "pIC50", "setting": "MCF7", "value": 5.59},
      {"measurement": "pIC50", "setting": "CAKI-2", "value": 6.31},
      {"measurement": "pIC50", "setting": "CCRF-CEM", "value": 6.20},
      {"measurement": "pIC50", "setting": "B16F10", "value": 6.85},
      {"measurement": "pIC50", "setting": "Raji", "value": 6.21},
      {"measurement": "pIC50", "setting": "RL", "value": 7.10},
      {"measurement": "pIC50", "setting": "CAKI-1", "value": 6.55},
      {"measurement": "pIC50", "setting": "U2OS", "value": 5.92},
      {"measurement": "pIC50", "setting": "RPMI 8226", "value": 6.80},
      {"measurement": "pIC50", "setting": "MOLT4", "value": 6.70},
      {"measurement": "pIC50", "setting": "PC3", "value": 6.72},
      {"measurement": "pIC50", "setting": "A498", "value": 6.66},
      {"measurement": "pIC50", "setting": "WSU-DLCL2", "value": 6.85},
      {"measurement": "pIC50", "setting": "HepG2", "value": 6.51}
    ]}
  ]
}
